Target: T1, human nAChRα6-α3 chimera, in addition to β2 and β3^V273S subunits (Homo sapiens, UniProt P32297+Q15825)
T1 construct: expressed in transfected cells
Test: fluorescence-based calcium assay: inhibition of nicotine stimulated nAChRα6 activity (FLIPR)
Conditions: HEK cell line stably expressing the receptor; 10 min pre-incubation, nicotine EC80; 10-point curve, duplicate wells; read-out: IC50
Experimental: The ability of the test compounds to inhibit nicotine stimulated nAChRα6 activity was determined in a fluorescence-based calcium assay. Compound activity was determined using a HEK cell line stably expressing a human nAChRα6-α3 chimera, in addition to β2 and β3^V273S subunits (as in Capelli et al, Br J Pharmacol 163(2): 313-29 2011). In this cell line, nicotine stimulated an increase in intracellular calcium concentration, measured as an increase in fluorescence when cells were incubated with a calcium sensitive dye. Test compounds were pre-incubated with cells prior to nicotine stimulation to detect any reduction in the magnitude of the nicotine response.
The day prior to the assay, compounds were serially diluted in DMSO (200× final assay concentration (FAC)), in 384-well plates which were then stored in the dark at room temperature (RT) until use. Cells were seeded at 20 k/well in black, poly-D-lysine coated, clear bottom 384-well plates and incubated for 4 hours at 37° C., followed by overnight incubation at 30° C. The following day, the DMSO compound plate was diluted 1:20 (10×FAC) in assay buffer (HEPES buffered saline solution with 10 mM HEPES, 0.1% bovine serum albumin, 1 mM probenecid). A nicotine solution was prepared in assay buffer (7×FAC) and dispensed into a 384-well plate. The growth media was removed from the cell plate, replaced with 53 μl calcium dye/well (Calcium 5; Molecular Devices) and the plate incubated at 30° C. for 45 minutes. Test compounds were then added to the cells (7 μl of 10×FAC) and incubated for 10 minutes, after which nicotine EC80 (10 μl of 7×FAC) was added and changes in fluorescence measured using a FLIPR plate reader (Molecular Devices).
Compound activity was examined using a 10-point, half-log concentration-response range and each concentration was tested in duplicate wells.

T1 sequence (Q05901 25-458 V273S): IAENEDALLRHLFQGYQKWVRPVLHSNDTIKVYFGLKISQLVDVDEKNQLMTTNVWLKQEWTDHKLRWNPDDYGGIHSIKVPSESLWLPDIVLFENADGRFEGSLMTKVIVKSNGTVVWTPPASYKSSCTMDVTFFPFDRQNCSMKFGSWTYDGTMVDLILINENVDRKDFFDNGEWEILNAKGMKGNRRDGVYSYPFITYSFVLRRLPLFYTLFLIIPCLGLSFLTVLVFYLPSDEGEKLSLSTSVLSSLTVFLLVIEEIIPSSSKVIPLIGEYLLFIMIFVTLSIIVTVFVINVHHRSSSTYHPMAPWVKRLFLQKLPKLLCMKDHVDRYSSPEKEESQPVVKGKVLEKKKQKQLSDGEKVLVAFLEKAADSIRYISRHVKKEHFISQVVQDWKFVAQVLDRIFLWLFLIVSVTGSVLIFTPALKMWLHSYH
T1 sequence (P17787 26-502, stated change not applied, further chain): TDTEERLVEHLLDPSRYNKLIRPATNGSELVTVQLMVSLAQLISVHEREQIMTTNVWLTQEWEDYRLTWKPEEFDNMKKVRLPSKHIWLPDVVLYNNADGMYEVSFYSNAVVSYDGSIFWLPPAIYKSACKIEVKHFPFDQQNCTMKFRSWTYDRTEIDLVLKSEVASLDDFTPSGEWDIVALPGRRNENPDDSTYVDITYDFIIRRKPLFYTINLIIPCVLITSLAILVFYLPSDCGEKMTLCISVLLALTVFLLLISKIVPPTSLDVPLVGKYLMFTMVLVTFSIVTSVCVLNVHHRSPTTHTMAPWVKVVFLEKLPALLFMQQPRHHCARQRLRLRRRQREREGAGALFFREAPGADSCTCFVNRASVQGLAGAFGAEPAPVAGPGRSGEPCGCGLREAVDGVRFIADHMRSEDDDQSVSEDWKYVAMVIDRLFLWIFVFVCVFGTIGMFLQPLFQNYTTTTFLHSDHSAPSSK
T1 sequence (Q15825+P32297 fused with the stated changes): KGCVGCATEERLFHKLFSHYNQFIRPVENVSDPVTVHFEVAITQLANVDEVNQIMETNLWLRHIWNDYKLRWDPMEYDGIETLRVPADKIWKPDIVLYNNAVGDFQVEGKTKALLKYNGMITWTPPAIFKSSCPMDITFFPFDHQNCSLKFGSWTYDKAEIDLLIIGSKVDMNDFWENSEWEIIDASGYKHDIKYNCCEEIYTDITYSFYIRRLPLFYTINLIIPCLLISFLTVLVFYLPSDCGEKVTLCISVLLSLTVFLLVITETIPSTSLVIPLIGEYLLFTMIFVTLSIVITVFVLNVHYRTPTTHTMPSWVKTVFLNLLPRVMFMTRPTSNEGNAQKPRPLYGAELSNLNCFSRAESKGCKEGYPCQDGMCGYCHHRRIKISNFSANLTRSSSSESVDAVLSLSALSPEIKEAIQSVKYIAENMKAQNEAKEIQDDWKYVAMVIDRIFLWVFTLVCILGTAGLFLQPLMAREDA

SMILES	IC50 [nM]
COc1ccc(-c2nnc(NCC3CCCN3C)nc2C)c(F)c1 (racemic) [Example 18, 6-(2-fluoro-4-methoxyphenyl)-5-methyl-N-((1-methylpyrrolidin-2-yl)methyl)-1,2,4-triazin-3-amine]	526
Cc1nc(N[C@@H]2CNC[C@@H]2F)ncc1-c1ccc(C(F)(F)F)cc1F (relative stereo) [Example 112, N-((cis)-4-fluoropyrrolidin-3-yl)-5-(2-fluoro-4-(trifluoromethyl)phenyl)-4-methyl-pyrimidin-2-amine]	107
Cc1nc(N[C@H]2CNC[C@@H]2F)ncc1-c1ccc(C(F)(F)F)cc1F (relative stereo) [Example 114, N-((trans)-4-fluoropyrrolidin-3-yl)-5-(2-fluoro-4-(trifluoromethyl)phenyl)-4-methyl-pyrimidin-2-amine]	142
COc1ccc(-c2nnc(NCC3CCCN3C)nc2C)c(F)c1 (single isomer, unassigned) [Example 18a, 6-(2-fluoro-4-methoxyphenyl)-5-methyl-N-((1-methylpyrrolidin-2-yl)methyl)-1,2,4-triazin-3-amine]	331
COc1ccc(-c2nnc(NCC3CCCN3C)nc2C)c(F)c1 (single isomer, unassigned) [Example 18b, 6-(2-fluoro-4-methoxyphenyl)-5-methyl-N-((1-methylpyrrolidin-2-yl)methyl)-1,2,4-triazin-3-amine]	442
COc1ccc(-c2cnc(NCC3CCCN3C)nc2C)c(F)c1 (single isomer, unassigned) [Example 28a, 5-(2-fluoro-4-methoxyphenyl)-4-methyl-N-((1-methylpyrrolidin-2-yl)methyl)pyrimidin-2-amine]	54
COc1ccc(-c2cnc(NCC3CCCN3C)nc2C)c(F)c1 (single isomer, unassigned) [Example 28b, 5-(2-fluoro-4-methoxyphenyl)-4-methyl-N-((1-methylpyrrolidin-2-yl)methyl)pyrimidin-2-amine]	10
COc1ccc(-c2cnc(NC3CCC(N(C)C)C3)nc2C#N)c(F)c1 (single isomer, unassigned) [Example 38a, 2-((3-(dimethylamino)cyclopentyl)amino)-5-(2-fluoro-4-methoxyphenyl) pyrimidine-4-carbonitrile]	59
COc1ccc(-c2cnc(NC3CCC(N(C)C)C3)nc2C#N)c(F)c1 (single isomer, unassigned) [Example 38b, 2-((3-(dimethylamino)cyclopentyl)amino)-5-(2-fluoro-4-methoxyphenyl) pyrimidine-4-carbonitrile]	70
Cc1nc(NC2CCCC(N(C)C)C2)nnc1-c1ccc(F)cc1F (single isomer, unassigned) [Example 39a, N^1-(6-(2,4-difluorophenyl)-5-methyl-1,2,4-triazin-3-yl)-N^3,N^3-dimethylcyclohexane-1,3-diamine]	904
Cc1nc(NC2CCCC(N(C)C)C2)nnc1-c1ccc(F)cc1F (single isomer, unassigned) [Example 39b, N^1-(6-(2,4-difluorophenyl)-5-methyl-1,2,4-triazin-3-yl)-N^3,N^3-dimethylcyclohexane-1,3-diamine]	901
COc1ccc(-c2cnc(NC3CCC(N(C)C)C3)nc2C)c(F)c1 (single isomer, unassigned) [Example 44a, N^1-(5-(2-fluoro-4-methoxyphenyl)-4-methyl-pyrimidin-2-yl)-N^3,N^3-dimethylcyclopentane-1,3-diamine]	76
COc1ccc(-c2cnc(NC3CCC(N(C)C)C3)nc2C)c(F)c1 (single isomer, unassigned) [Example 44b, N^1-(5-(2-fluoro-4-methoxyphenyl)-4-methyl-pyrimidin-2-yl)-N^3,N^3-dimethylcyclopentane-1,3-diamine]	88
COc1ccc(-c2cnc(NC3CCCC(OC)C3)nc2C)c(F)c1 (single isomer, unassigned) [Example 53a, 5-(2-fluoro-4-methoxyphenyl)-N-(3-methoxycyclohexyl)-4-methyl-pyrimidin-2-amine]	1240
COc1ccc(-c2cnc(NC3CCCC(OC)C3)nc2C)c(F)c1 (single isomer, unassigned) [Example 53b, 5-(2-fluoro-4-methoxyphenyl)-N-(3-methoxycyclohexyl)-4-methyl-pyrimidin-2-amine]	734
COc1ccc(-c2nnc(NCC3CCCN3C)nc2C)c(F)c1 (single isomer, unassigned) [Example 54a, 6-(2-fluoro-4-methoxyphenyl)-5-methyl-N-((1-methylpyrrolidin-2-yl)methyl)-1,2,4-triazin-3-amine]	331

SMILES	IC50 [nM]
COc1ccc(-c2nnc(NCC3CCCN3C)nc2C)c(F)c1 (single isomer, unassigned) [Example 54b, 6-(2-fluoro-4-methoxyphenyl)-5-methyl-N-((1-methylpyrrolidin-2-yl)methyl)-1,2,4-triazin-3-amine]	442
Cc1nc(NC2CCCC(N(C)C)C2)ncc1-c1ccc(F)cc1F (single isomer, unassigned) [Example 55a, N^1-(5-(2,4-difluorophenyl)-4-methyl-pyrimidin-2-yl)-N^3,N^3-dimethylcyclohexane-1,3-diamine]	98
Cc1nc(NC2CCCC(N(C)C)C2)ncc1-c1ccc(F)cc1F (single isomer, unassigned) [Example 55b, N^1-(5-(2,4-difluorophenyl)-4-methyl-pyrimidin-2-yl)-N^3,N^3-dimethylcyclohexane-1,3-diamine]	81
COc1ccc(-c2cnc(NC3CCCC(N(C)C)C3)nc2C#N)c(F)c1 (single isomer, unassigned) [Example 56a, 2-((3-(dimethylamino)cyclohexyl)amino)-5-(2-fluoro-4-methoxyphenyl) pyrimidine-4-carbonitrile]	133
COc1ccc(-c2cnc(NC3CCCC(N(C)C)C3)nc2C#N)c(F)c1 (single isomer, unassigned) [Example 56b, 2-((3-(dimethylamino)cyclohexyl)amino)-5-(2-fluoro-4-methoxyphenyl) pyrimidine-4-carbonitrile]	162
COc1ccc(-c2nnc(NCC3CCCCN3C)nc2C)c(F)c1 (single isomer, unassigned) [Example 57a, 6-(2-fluoro-4-methoxyphenyl)-5-methyl-N-((1-methylpiperidin-2-yl)methyl)-1,2,4-triazin-3-amine]	139
COc1ccc(-c2nnc(NCC3CCCCN3C)nc2C)c(F)c1 (single isomer, unassigned) [Example 57b, 6-(2-fluoro-4-methoxyphenyl)-5-methyl-N-((1-methylpiperidin-2-yl)methyl)-1,2,4-triazin-3-amine]	144
CN(C)C1CCC(Nc2ncc(-c3ccc(F)cc3F)c(C#N)n2)C1 (single isomer, unassigned) [Example 58a, 5-(2,4-difluorophenyl)-2-((3-(dimethylamino)cyclopentyl)amino) pyrimidine-4-carbonitrile]	38
CN(C)C1CCC(Nc2ncc(-c3ccc(F)cc3F)c(C#N)n2)C1 (single isomer, unassigned) [Example 58b, 5-(2,4-difluorophenyl)-2-((3-(dimethylamino)cyclopentyl)amino) pyrimidine-4-carbonitrile]	56
CN(C)C1CCCC(Nc2ncc(-c3ccc(F)cc3F)c(C#N)n2)C1 (single isomer, unassigned) [Example 59a, 5-(2,4-difluorophenyl)-2-((3-(dimethylamino)cyclohexyl)amino) pyrimidine-4-carbonitrile]	202
CN(C)C1CCCC(Nc2ncc(-c3ccc(F)cc3F)c(C#N)n2)C1 (single isomer, unassigned) [Example 59b, 5-(2,4-difluorophenyl)-2-((3-(dimethylamino)cyclohexyl)amino) pyrimidine-4-carbonitrile]	134
Cc1nc(NC(C)C2CCN(C)C2)ncc1-c1ccc(F)cc1F (single isomer, unassigned) [Example 64a, 5-(2,4-difluorophenyl)-4-methyl-N-(1-(1-methylpyrrolidin-3-yl)ethyl) pyrimidin-2-amine]	90
Cc1nc(NC(C)C2CCN(C)C2)ncc1-c1ccc(F)cc1F (single isomer, unassigned) [Example 64b, 5-(2,4-difluorophenyl)-4-methyl-N-(1-(1-methylpyrrolidin-3-yl)ethyl) pyrimidin-2-amine]	88
Cc1nc(NC2CC(N(C)C)C2)ncc1-c1ccc(F)cc1F (single isomer, unassigned) [Example 68a, N^1-(5-(2,4-difluorophenyl)-4-methyl-pyrimidin-2-yl)-N^3,N^3-dimethylcyclobutane-1,3-diamine]	78
Cc1nc(NC2CC(N(C)C)C2)ncc1-c1ccc(F)cc1F (single isomer, unassigned) [Example 68b, N^1-(5-(2,4-difluorophenyl)-4-methyl-pyrimidin-2-yl)-N^3,N^3-dimethylcyclobutane-1,3-diamine]	67

From patent US20240059677A1, “SUBSTITUTED PYRIMIDINE DERIVATIVES AS NICOTINIC ACETYLCHOLINESTERASE RECEPTOR ALPHA 6 MODULATOR” (priority 2020, published 2024)
